Test results as given in ChEMBL document CHEMBL1201862, “PubChem BioAssay data set” (2004).
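Cells were grown in 96-well plates and exposed to each compound for 48 hours at five concentrations; endpoints were interpolated linearly between bracketing concentrations, or set to the highest concentration if not reached. The concentration for 50% growth inhibition is given as GI50.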 The source made the active and inactive calls. No stated cut-off is given here; in the data, active = GI50 up to about 1.1 µM and inactive = higher.

Columns and labels:
Test in all cases: inhibition of tumour cell growth, NCI panel, 48 h
[1] = test system: MDA-N
[2] = test system: MCF7
[3] = test system: MDA-MB-231
[4] = test system: LXFL 529
[5] = test system: SNB-78
[6] = test system: DMS-114
[7] = test system: DLD-1
[8] = test system: RXF 631

Row | SMILES | GI50 [1] | GI50 [2] | GI50 [3] | GI50 [4] | GI50 [5] | GI50 [6] | GI50 [7] | GI50 [8]
1 | CC1=NN(C(=O)c2ccccc2O)C(=O)/C1=C/c1ccc(O)cc1 | 316 nM (active) | 382 nM (active) | 58.9 µM (inactive) | 0.141 µM (active) | > 100 µM (inactive) | 0.348 µM (active) | 0.151 µM (active) | 
2 | CCOC(=O)C1CCn2c(nc3c(=O)n(C)c(=O)n(C)c32)S1 (stereo not given) |  |  |  | > 100 µM (inactive) | > 100 µM (inactive) |  | > 100 µM (inactive) | > 100 µM (inactive)
3 | COC(=O)N1C=Cc2c(c(C)c3c([nH]c4ccccc43)c2C)C1C (stereo not given) |  |  |  | 22.2 µM (inactive) |  | 19.4 µM (inactive) | 14.8 µM (inactive) | 16.4 µM (inactive)
4 | NC(CCCCNCc1ccccc1)C(=O)O (stereo not given) |  |  |  | > 100 µM (inactive) | > 100 µM (inactive) | > 100 µM (inactive) | > 100 µM (inactive) | > 100 µM (inactive)
5 | CN(C)CCNC(=O)c1cccc2c1nc(-c1cccnc1)c1ccccc12 |  |  |  |  | 8.18 µM (inactive) | 4.91 µM (inactive) | 4.1 µM (inactive) | 1.96 µM (inactive)
6 | CCCCCCCCCCCC(=O)C1=C(O)CCC(O)C1=O (stereo not given) |  |  |  | 16.6 µM (inactive) | 21.9 µM (inactive) | 14.2 µM (inactive) | 18.2 µM (inactive) | 
7 | O=C(CC1(O)C(=O)Nc2c(Cl)cc(Cl)cc21)c1ccco1 (stereo not given) |  |  |  | 37.8 µM (inactive) | 26.9 µM (inactive) | 22.8 µM (inactive) | 49.3 µM (inactive) | 
8 | CC1(O)C=CC(=O)C=C1 |  |  |  | 13.3 µM (inactive) | 34.8 µM (inactive) | 16.4 µM (inactive) | 12.4 µM (inactive) | 
9 | CC(=O)C1C(=O)C(=O)N(c2ccc(Cl)cc2C)C1=O (stereo not given) |  |  |  | > 100 µM (inactive) | > 100 µM (inactive) | > 100 µM (inactive) | > 100 µM (inactive) | > 100 µM (inactive)
10 | COc1ccc(/C=C(\C2=NC(=O)CS2)c2nc3ccccc3[nH]2)cc1 |  |  |  | 60.7 µM (inactive) | 21.5 µM (inactive) | 19.5 µM (inactive) | > 100 µM (inactive) | 
11 | O=C1NC2CCCCCC2C12CCCCC2 (stereo not given) |  |  |  | > 100 µM (inactive) | > 100 µM (inactive) | > 100 µM (inactive) | > 100 µM (inactive) | > 100 µM (inactive)
12 | N#C/C(=C/c1ccco1)C(=O)c1ccccc1 |  |  |  | > 100 µM (inactive) | > 100 µM (inactive) | > 100 µM (inactive) | > 100 µM (inactive) | > 100 µM (inactive)
13 | COc1cc(C2C(C(=O)Nc3ccccc3C)=C(C)NC(C)=C2C(=O)Nc2ccccc2C)ccc1O |  |  |  | > 100 µM (inactive) | > 100 µM (inactive) | > 100 µM (inactive) | > 100 µM (inactive) | > 100 µM (inactive)
14 | Cc1ccc(S(=O)(=O)N/N=C(/c2nc3ccc([N+](=O)[O-])cc3nc2O)C(O)c2ccc(C(O)/C(=N\NS(=O)(=O)c3ccc(C)cc3)c3nc4ccc([N+](=O)[O-])cc4nc3O)cc2)cc1 (stereo not given) |  |  |  | 21.4 µM (inactive) | > 100 µM (inactive) | 5.98 µM (inactive) | 33.3 µM (inactive) | 56.5 µM (inactive)
15 | COc1ccc(/C(Cl)=C(\C=O)c2ccc(OC)c(OC)c2)cc1 |  |  |  | 30.4 µM (inactive) | 29 µM (inactive) | 25.9 µM (inactive) |  | 54.3 µM (inactive)
16 | COc1ccc(Br)c(CN2CCc3ccccc32)c1OS(=O)(=O)c1ccc(C)cc1 |  |  |  |  | 23.3 µM (inactive) | 18.3 µM (inactive) | 15.3 µM (inactive) | 34.4 µM (inactive)
17 | c1ccc(N/N=C2\NN=C(c3ccccc3)CS2)cc1 |  |  |  |  | 5.46 µM (inactive) |  |  | 5.52 µM (inactive)
18 | COC(=O)C1=C(O)c2cc3c(cc2[C@H](c2cc(OC)c(OC)c(OC)c2)C1C(=O)OC)OCO3 (stereo not given in full) |  |  |  | 56.5 µM (inactive) | 53.2 µM (inactive) | 25 µM (inactive) | 67 µM (inactive) | > 100 µM (inactive)
